Assay results: patent publication US10765682B2 (LAM Therapeutics, Inc., priority 2014, dated 2020)

Test system: Yulac614 melanoma cells
Experiment: Yulac614 cell viability (CellTiter-Glo), drug library screen and 10 point validation with/without vemurafenib
Method: Duplicate drug-spotted plates were prepared and to them were added Yulac614 cells which were pre-treated with either DMSO (0.01% final) or vemurafenib (6 μM final). The Yulac614 cells were grown in OptiMEM (Life Technologies) containing 5% FBS (Sigma Aldrich F2442-500ML, Lot 12D370) Penicillin/Streptomycin (100×) (CellGro Ref 30-002). 30 uL of cells were dispensed per well using a Multidrop Combi (Thermo Fisher Scientific) to give a final cell density of 2,000 cells per well.
Plates were incubated for 72 h at 37° C. under an atmosphere of 5% CO2 in a humidified incubator. Cell viability was determined with CellTiter-Glo® luminescence assay (Promega) as per the manufacturer's instructions. Viability was expressed as a percentage of control (DMSO) cells. The viability of the library drug alone was compared to the library drug+vemurafenib and significant combinations were identified.
72 hours after compound addition relative cell viability was determined by CellTiter-Glo® luminescence assay (Promega) as per the manufacturer's instructions, and values were expressed as a percentage relative to vehicle (DMSO) treated control cells (set to 100%).

`Cc1cccc(/C=N/Nc2cc(N3CCOCC3)nc(OCCc3ccccn3)n2)c1` [apilimod, (E)-4-(6-(2-(3-methylbenzylidene)hydrazinyl)-2-(2-(pyridin-2-yl)ethoxy)pyrimidin-4-yl)morpholine] was tested, and the IC20 was 500 nM.
